Results from PMC4351682, “Formononetin inhibits enterovirus 71 replication by regulating COX- 2/PGE2 expression” (Virology Journal, 2015).

Columns and labels:
PGE2 = PGE2 release assay (EIA) in EV71-infected SK-N-SH cells; type: cell-based; settings: pretreatment 24 h, formononetin 14.91 μmol/L, pirodavir 1.08 μmol/L, supernatant at 24 h p.i.
Protocol: Figure 4 Formononetin could inhibit EV71-induced COX-2 expression and PGE 2 production. (A) Formononetin but not pirodavir can reduce the expression of COX-2 induced by EV71 infection. SK-N-SH cells were mock-infected or infected with 480 pfu/well of EV71 (SHZH98) for 2 h. The cells were then treated with formononetin (14.91 μmol/L) and pirodavir (1.08 μmol/L), respectively, for 24 h. The cells were harvested and EV71-VP1 and COX-2 were examined by western blot. (B) Formononetin but not pirodavir can reduce the release of PGE2 stimulated by EV71 infection. SK-N-SH cells were pretreated with formononetin (14.91 μmol/L) or pirodavir (1.08 μmol/L) for 24 h. The cells were infected with 4.8 × 10^5 pfu/well of EV71 (SHZH98). At 24 h p.i., the culture supernatants were harvested for PGE2 release assay. For the detection of PGE2 release, SK–N–SH cells (3 × 10^5 cells/well) were seeded into 24-well culture plates and were incubated for 16 h. And then the cells were serum-deprived for 24 h and incubated with EV71 for the indicated time intervals. When drugs were used, they were added 24 h prior to the application of EV71. After treatment, the supernatants were harvested. The supernatant from each sample was assayed using a PGE2 EIA kit (AMEKO) following the manufacturer’s instruction. […] The absorbance of each well was measured at 450 nm.

EV71 strain BrCr = test: CPE inhibition assay, EV71 strain BrCr in Vero cells; type: cell-based, enterovirus 71; settings: Enterovirus A
Protocol: (§1) The anti-EV71 activity of formononetin was assayed by CPE inhibition method. Briefly, cells (3 × 10^4 cells/well) were plated into 96-well culture plates for incubation of 24 h. The medium was then removed and cells were infected with EV71 of 80 pfu/well. Then, various concentrations of formononetin were supplemented for incubation of another 48 h. The IC50 defined as the minimal concentration of inhibitor required to inhibit 50% of CPE was determined by Reed & Muench method. The selectivity index (SI) was calculated as the ratio of TC50/IC50 [19].

SK-N-SH cells = test: Cytotoxicity assay (MTS) in SK-N-SH cells; type: cell-based; settings: 3 days
Protocol: Cytotoxic effect of formononetin on Vero or SK-N-SH cells was assayed by MTS (promega) assay. Briefly, cells (3 × 10^4 cells/well) were seeded into 96-well culture plates and were incubated overnight. Then, the medium was removed and different concentrations of formononetin were applied in triplicate. After 3 days’ incubation, the cytotoxicity of formononetin was determined by MTS assay. The TC50 was defined as the concentration that inhibits 50% cellular growth in comparison with the controls and the TC0 was defined as the maximal non-toxicity dose.

EV71 SHZH98 strain [1] = test: CPE inhibition assay for anti-EV71 in Vero cells; type: cell-based, enterovirus 71; settings: Enterovirus A, 48 h
Protocol: as §1, with “The IC50 defined as the minimal concentration of inhibitor required to inhibit 50% of CPE was determined by Reed & Muench method.” left out

JNK = test: Western blot of EV71-induced phosphorylation of JNK in SK-N-SH cells; type: cell-based; settings: pretreatment 24 h, formononetin 14.91 μmol/L, pirodavir 1.08 μmol/L, EV71 30 min
Protocol: (§2) Figure 3 Formononetin but not pirodavir reduces the phosphorylation of ERK (A), p38 (B), and JNK (C) induced by EV71 infection. SK-N-SH cells (9 × 10^5 cells/well) were plated into 6-well culture plates. The cells were then pretreated with formononetin (14.91 μmol/L) and pirodavir (1.08 μmol/L), respectively. After 24 h, the cells were mock-infected or infected with 4.8 × 10^5 pfu/well of EV71 (SHZH98) for 15 min (A), 10 min (B), and 30 min (C), respectively. The cells were harvested and ERK (A) p-ERK (A), p38 (B), p-p38 (B), JNK (C), and p-JNK (C) were detected by western blot.
(§3) Cells were lysed in the M-PER mammalian protein extraction reagent (Thermo, Rockford, IL) containing halt protease inhibitor single-use cocktail (Thermo). The protein concentration was determined by the BCA reagents (Thermo). About 10 μg proteins were denatured and applied to sodium dodecyl sulfate-polyacrylamide gel electrophoresis (SDS-PAGE). The electrophoresis products were transferred to a polyvinyl idenefluoride (PVDF) film and PVDF membranes were then incubated at room temperature with specific primary antibody. After a standard washing, membranes were incubated with horse radish peroxidase (HRP)-labeled secondary antibody. The assay developed using a chemiluminescent substrate. […]

EV71 strain JS-52 = test: CPE inhibition assay, EV71 strain JS-52 in Vero cells; type: cell-based, enterovirus 71; settings: Enterovirus A, EV71 JS-52, Vero cells
Protocol: as §1

EV71 SHZH98 strain [2] = test: CPE inhibition assay for anti-EV71 in SK-N-SH cells; type: cell-based, enterovirus 71; settings: Enterovirus A, 48 h
Protocol: as §1, with “The IC50 defined as the minimal concentration of inhibitor required to inhibit 50% of CPE was determined by Reed & Muench method.” left out

p38 = test: Western blot of EV71-induced phosphorylation of p38 in SK-N-SH cells; type: cell-based; settings: pretreatment 24 h, formononetin 14.91 μmol/L, pirodavir 1.08 μmol/L, EV71 10 min
Protocol: as §2, §3

EV71 VP1 protein = test: Western blot of EV71 VP1 protein in SK-N-SH cells; type: cell-based, enterovirus 71; settings: EV71 SHZH98 infected SK-N-SH cells
Source text: Figure 2 The antiviral effect of formononetin and pirodavir against EV71 in SK-N-SH cells. (A) Formononetin and pirodavir reduced the expression of EV71 VP1 protein in SK-N-SH cells by western blot assay. (B) Formononetin and pirodavir reduced the expression of EV71 VP1 protein in SK-N-SH cells by immunofluorescence assay. Cells were examined using a fluorescence microscopy (×100). (C) Formononetin and pirodavir reduced the expression of EV71 VP1 RNA by one-step qRT-PCR assay. *P < 0.001 ^# P < 0.05.
as §3

Compound	EV71-stimulated PGE2 release (PGE2)	IC50 (EV71 strain BrCr) [µM]	TC0 (maximal non-toxicity dose) (SK-N-SH cells) [µmol/L]	TC50 (50% toxicity concentration) (SK-N-SH cells) [µM]	TC0 (maximal non-toxicity dose) (SK-N-SH cells; listed as formononetin) [µmol/L]	TC50 (50% toxicity concentration) (SK-N-SH cells; listed as formononetin) [µM]	IC50 (EV71 SHZH98 strain [1]) [µM]	EV71-stimulated phosphorylation of JNK (JNK)	IC50 (EV71 strain JS-52) [µM]	IC50 (EV71 SHZH98 strain [2]) [µM]	EV71-stimulated phosphorylation of p38 (p38)	Expression of EV71 VP1 protein (western blot) (EV71 VP1 protein)
COc1ccc(-c2coc3cc(O)ccc3c2=O)cc1 [Formononetin]	attenuated	6.47 ± 4.4	55.92 ± 0	198.80 ± 6.02	55.92	198.80	3.45 ± 0.55	significantly attenuated	17.9 ± 8.51	3.98 ± 0.8	significantly attenuated	decrease the expression of VP1 protein in a dose dependent manner
CCOC(=O)c1ccc(OCCC2CCN(c3ccc(C)nn3)CC2)cc1 [Pirodavir, reference compound]	not	–	–	–	–	–	0.38 ± 0.08	not	–	0.23 ± 0.04	not	decrease
